The values that follow come from patent US20190314812A1, “SKIN SAMPLE CULTURE AND MEMBRANE TEST DEVICE” (The University of Dundee, priority 2016, published 2019).

The assay deals with NRF2. Put plainly: NQO1 mRNA levels in skin cultured in the device and treated with an NRF2 activator. The class given is cell-based. To be noted: tissue treated on Day 0 versus Day 4 of culture in the 384-well device. On the procedure: FIG. 8A is a perspective view of another embodiment of the present invention 341. […] The base has holes (not shown) which receive fixings 349. […] FIG. 8B is a schematic diagram which summarises an experiment in which skin cultured in the apparatus 341 was treated with a small molecule NRF2 activator (TBE-31) in order to evaluate the intracellular viability of the tissue. NRF2 transcriptionally regulates multiple genes that play both direct and indirect roles in activating intracellular anti-oxidative pathways.

Structures are written as SMILES.

With `C#C[C@]12C=C(C#N)C(=O)C=C1[C@@]1(C)C=C(C#N)C(=O)C(C)(C)[C@@H]1CC2` [TBE-31], the “NRF2 response (NQO1 mRNA levels) in cultured skin” value was “statistically the same”.
